Results: patent US11484032B2, “Compositions for inhibition of insect sensing” (Vanderbilt University, priority 2011, dated 2022)

How the values were obtained:
AgORco+AgOR10 [1] = molecular target: T1, AgORco+AgOR10 (Anopheles gambiae, UniProt Q7QCC7); assay: Fluo-4 Ca2+ imaging, HEK293 cells expressing Orco+AgOR10; type: cell-based; set-up: Orco 10 + Orco Angatonist % Reduction / Orco 10 + Orco Agonist % of control: concentration or dose not given beside the values; conditions: Orco 10 + Orco; for Orco 10 + Orco Angatonist % Reduction: antagonist mode
T1 construct: expressed in transfected cells
T1 sequence (Q7QCC7 1-478): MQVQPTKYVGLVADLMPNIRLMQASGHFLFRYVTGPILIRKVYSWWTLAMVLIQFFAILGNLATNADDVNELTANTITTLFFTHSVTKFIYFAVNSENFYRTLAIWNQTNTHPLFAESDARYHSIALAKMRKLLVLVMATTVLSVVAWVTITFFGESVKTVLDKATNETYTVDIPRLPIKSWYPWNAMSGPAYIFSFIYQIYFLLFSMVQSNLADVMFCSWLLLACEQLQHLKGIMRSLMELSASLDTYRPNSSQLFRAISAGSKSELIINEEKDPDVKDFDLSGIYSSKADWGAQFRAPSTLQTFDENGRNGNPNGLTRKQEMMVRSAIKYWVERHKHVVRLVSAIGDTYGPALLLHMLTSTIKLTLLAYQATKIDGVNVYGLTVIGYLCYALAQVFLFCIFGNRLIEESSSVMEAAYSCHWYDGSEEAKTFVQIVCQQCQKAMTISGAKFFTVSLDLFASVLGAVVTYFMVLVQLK
Summary of the method: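 Stable Flp-In T-REx 293 lines co-expressing Orco and OR, induced overnight with 0.3 u-g/ul tetracycline, loaded with 1.8 uM Fluo-4 AM plus 2.5 mM probenecid for 45 min at 37 °C. Ca2+ mobilization read after 20 s baseline and compound addition; Max/Min ratios normalized to the maximum responder.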

Orco 28 + Orco = molecular target: T2, Orco 28 + Orco (Anopheles gambiae, UniProt Q7QCC7); assay: Activity against insect odorant sensory receptors, Orco 28 + Orco (Table 1); type: cell-based; conditions: for Orco 28 + Orco Potentiator % increase: potentiator mode; for Orco 28 + Orco Antagonist % Reduction: antagonist mode
T2 construct: expressed in transfected cells
T2 sequence (Q7QCC7 1-478): T1 sequence (Q7QCC7 1-478)
Protocol: The activity against insect odorant sensory receptors was evaluated for various disclosed compounds, and the data were collected in Table 1.

[2] = molecular target: T3, mosquito odorant receptor (complex not stated) (Anopheles gambiae, UniProt Q7QCC7); assay: Agonism of mosquito odorant receptors by VUAA derivatives (complex not stated), cell-based Ca2+ imaging; conditions: FIGS. 23, 24, 26, 28; OR complex not stated
T3 sequence (Q7QCC7 1-478): T1 sequence (Q7QCC7 1-478)
From the text: For transient transfections, ORs were cloned into pCl (Promega) and transfected into Flp-In™ T-REx™293 cell lines (Invitrogen) with Fu GENE6 (Roche). For the creation of stable cell lines, a cell culture expression vector capable of expressing Orco in conjunction with a conventional OR, pcDNA5/FRT/TO (Invitrogen) was modified to create two individual expression cassettes each under the control of a separate CMV/Tet02 promoter and a BGH poly-adenylation signal. Cells (as above) were transfected with the modified pcDNA5 plasmid along with POG44 (a Flp recombinase expression plasmid) to facilitate site-specific recombination. Stable cell lines were selected using Hygromycin B (Invitrogen). Cells were maintained in DMEM (Invitrogen) supplemented with 10% Tetracycline-free FBS (HyClone) and 15 ng/ml Blasticidin. For fluorometric Ca2+ measurements, stable lines expressing ORs of interest were seeded at 20,000 cells/well in black wall, poly-lysine coated 384-well cell culture plates (Greiner) and treated with […] tetracycline (Sigma) overnight to induce OR expression. Cells were dye-loaded with 1.8 uM Fluo-4 AM (Molecular Probes), 2.5 mM Probenecid (Molecular Probes) in assay buffer (20 mM HEPES, IX HBSS) for 45 minutes at 37° C. in 5% CO2 prior to each assay. Ca^2+ mobilization was assayed in an FDSS6000 (Hamamatsu). Baseline readings were taken for 20 s before automated addition of compound previously diluted in DMSO and assay buffer. Ratios were described as Maximum/Minimum response and each response was normalized to the maximum responder.

AgORco = molecular target: T4, AgORco (Anopheles gambiae, UniProt Q7QCC7); assay: Whole-cell patch clamp, HEK293 cells stably expressing AgORco alone; type: cell-based; conditions: AgORco alone cells, holding potential −60 mV
T4 construct: expressed in transfected cells
T4 sequence (Q7QCC7 1-478): T1 sequence (Q7QCC7 1-478)
Protocol: (§1) Currents from OR-expressing HEK293 cells were amplified with an Axopatch 200b Amplifier (Axon Instruments) and digitized through a Digidata 1322A (Axon Instruments). Electrophysiological data was recorded and analyzed using pCLAMP 10 (Axon Instruments). Electrodes were fabricated from quartz tubing (Sutter Instruments) and pulled to 4-6 MiΩ for whole cell recording. Electrodes were filled with internal solution (120 mM KCl, 30 mM D-glucose, 10 mM HEPES, 2 mM MgCl2, 1.1 mM EGTA, and 0.1 CaCl2) (pH 7.35, 280 mOsm). External (bath) solution contained 130 mM NaCl, 34 mM D-glucose, 10 mM HEPES, 1.5 mM CaCl2), 1.3 mM KH2PO4, and 0.5 MgSO4 (pH 7.35, 300 mOsm). Compounds were diluted in external solution and locally perfused to the recording cell using Perfusion Pencil (Automate Scientific) and controlled by a ValveLink 8.2 controller (Automate Scientific). Whole cell recordings were sampled at 10 kHz and filtered at 5 kHz. Outside-out patches were obtained using 10-15MΩ electrodes pulled from standard glass capillaries (World Precision Instruments) and fire-polished with an MF-830 micro forge (Narishige). Single channel recordings were sampled at 20 kHz. Recordings were reduced to 1 kHz and low-pass filtered at 500 Hz for display and analysis using QuB (SUNY at Buffalo).
(§2) To test the hypothesis that VUAA1 directly agonized AgORco, whole-cell patch clamp responses were examined in AgORco+AgOR10 expressing cells as well as HEK293 cells stably expressing AgORco alone. […] The VUAA1-dependent currents in AgORco+AgOR10 cells resembled those resulting from application of benzaldehyde, an orthosteric agonist of AgOR10 (FIG. 3C) (Wang, 2010; Carey, 2010). […] To investigate the specificity of VUAA1 agonism, the inventors transiently transfected HEK cells with the AgORco orthologs of Drosophila melanogaster and Heliothis virescens, DmORco and HvOR2 respectively.

[3] = system: Un-transfected HEK293 cells; assay: Whole-cell patch clamp, un-transfected HEK293 control cells; type: cell-based, human
Protocol: as §1

AgORco+AgOR10 [4] = molecular target: T1, AgORco+AgOR10; assay: Whole-cell patch clamp, HEK293 cells expressing AgORco+AgOR10; type: cell-based
Protocol: as §1, §2

[5] = molecular target: T5, rat transient receptor potential vanilloid 1 (rTRPV1) (Rattus norvegicus, UniProt O35433); assay: Whole-cell patch clamp, HEK cells stably expressing rTRPV1; type: cell-based
T5 construct: expressed in transfected cells
T5 sequence (O35433 whole entry): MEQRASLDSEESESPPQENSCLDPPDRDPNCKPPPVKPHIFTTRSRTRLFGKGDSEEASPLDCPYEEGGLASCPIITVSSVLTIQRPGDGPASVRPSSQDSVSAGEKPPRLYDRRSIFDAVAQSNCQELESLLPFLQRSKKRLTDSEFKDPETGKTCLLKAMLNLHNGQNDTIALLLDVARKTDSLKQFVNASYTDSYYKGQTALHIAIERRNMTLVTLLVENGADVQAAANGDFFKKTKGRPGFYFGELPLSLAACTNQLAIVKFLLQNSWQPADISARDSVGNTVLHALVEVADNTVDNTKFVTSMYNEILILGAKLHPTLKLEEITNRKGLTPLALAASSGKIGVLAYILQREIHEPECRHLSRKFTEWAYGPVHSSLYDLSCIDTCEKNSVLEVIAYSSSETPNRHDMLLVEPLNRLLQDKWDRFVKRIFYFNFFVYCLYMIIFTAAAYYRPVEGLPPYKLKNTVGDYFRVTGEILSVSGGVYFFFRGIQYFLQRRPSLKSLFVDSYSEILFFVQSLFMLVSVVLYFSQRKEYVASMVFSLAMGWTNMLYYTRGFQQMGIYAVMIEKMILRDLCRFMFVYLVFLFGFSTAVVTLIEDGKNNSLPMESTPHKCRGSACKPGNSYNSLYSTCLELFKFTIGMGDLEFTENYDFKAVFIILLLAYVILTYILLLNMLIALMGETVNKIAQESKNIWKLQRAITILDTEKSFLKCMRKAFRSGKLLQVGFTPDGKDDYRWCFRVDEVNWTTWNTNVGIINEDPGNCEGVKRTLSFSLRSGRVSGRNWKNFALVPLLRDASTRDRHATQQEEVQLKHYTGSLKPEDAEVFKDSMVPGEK

Row | EC50 [2] | SMILES | Orco 10 + Orco Angatonist % Reduction (AgORco+AgOR10 [1]) | Orco 28 + Orco Antagonist % Reduction (Orco 28 + Orco) | further results
1 | – | CCn1c(SCC(=O)Nc2ccc(S(=O)(=O)Nc3ccccn3)cc2)nnc1-c1ccncc1 | – | – | Orco 10 + Orco Potentiator % increase (AgORco+AgOR10 [1]; potentiator mode): 12.31%; Orco 28 + Orco Potentiator % increase (Orco 28 + Orco): 15.45%
2 | 180 µM | CCn1c(SCC(=O)Nc2ccc(C(C)C)cc2)nnc1-c1cnn(C)c1 [D00049 row 11] | – | – | –
3 | – | CCn1c(SCC(=O)N2c3ccccc3Sc3ccccc32)nnc1-c1ccco1 | 48.26% | 28.73% | –
4 | – | CCn1c(Cc2c(C)[nH]c3ccccc23)nnc1SCC(=O)Nc1ccc(Br)cc1 | 13.11% | 37.93% | –
5 | 200 µM | CCn1c(SCC(=O)Nc2ccc(C(C)C)cc2)nnc1-c1cn[nH]c1 [D00049 row 12] | – | – | –
6 | – | O=Cc1ccccc1 [Benzaldehyde] | – | – | whole-cell current response (AgORco): only Orco+AgOR10 cells responded to BA; whole-cell current response [3]: did not respond; whole-cell current response (AgORco+AgOR10 [4]; AgORco+AgOR10 cells, holding potential −60 mV): concentration-dependent responses; reversal potential of agonist-induced current (AgORco+AgOR10 [4]; AgORco+AgOR10 complexes, mean s.e.m.): −2.9±1.4 mV
7 | – | CCn1c(COc2ccccc2)nnc1SCC(=O)Nc1cc(C)ccc1OC | 33.67% | 17.21% | –
8 | – | COc1cc(CNC(=O)CCCC/C=C/C(C)C)ccc1O [Capsaicin, capsaicin, reference compound] | – | – | whole-cell current response [5]: robust response
9 | – | CCn1c(CNC(=O)c2ccco2)nnc1SCC(=O)Nc1cc(C)c(C)cc1Br | – | – | Orco 28 + Orco Potentiator % increase (Orco 28 + Orco): 12.28%

Row | SMILES | EC50 [2] | Orco 10 + Orco Angatonist % Reduction (AgORco+AgOR10 [1]) | Orco 28 + Orco Antagonist % Reduction (Orco 28 + Orco) | further results
10 | CCn1c(SCC(=O)Nc2ccc(C(C)C)cc2)nnc1-c1cccnc1 [D00049 row 2] | 20 µM | – | – | –
